B1: pK15 CT^WT: pK15 cytoplasmic tail fused to GST at its N-terminal end, phosphorylated in vitro by Src (protein)
chain: SQLLNEVELQEVNRDPPNVFGYASILVSGAEESREPSPQPDQSGMSILRVDGGSAFRIDTAQAATQPTDDLYEEVLFPRN
modifications: tyrosine-phosphorylated in vitro by Src; sites not stated for this construct; left off: GST, N-terminal, kept

Key:
[1] = test system: PLCγ1 tSH2 domain (Src-mediated phosphorylation, Y^783); assay: in vitro Src kinase assay, 35mer-enhanced PLCγ1 tSH2 phosphorylation; assay type: biochemical; settings: 1.25–5.0 μM 12mer, 2.5 μM 35mer, 0.085 μM Src, 45 min, 37°C; pY783 Western blot
Experimental: Fig 7 The pK15 CT domain enhances Src-mediated phosphorylation of the PLCγ1 tSH2 domain. (A) The purified PLCγ1 tSH2 domain (0.6 μM) was incubated with limiting amounts (0.085 μM) of recombinant purified Src kinase expressed in insect cells in the presence of increasing concentrations (1.25–5 μM) of phosphorylated peptides representing the last 12 (pK15 12mer) or 35 (pK15 35mer) amino acids of the pK15 cytoplasmic domain for 1 hour at 37°C. The reaction was stopped using SDS sample buffer and analysed by SDS-PAGE and Western blot using an antibody to the PLCγ1 pY^783 residue (top panel) or to the His tag on the recombinant tSH2 domain (bottom panel). […]
To test the impact of a pK15 CT fragment (pK15 CT^N2) or phosphorylated pK15 peptides representing the last 12 (DDLp[…]) or 35 ([…]pYEEVLFRN) amino acids of pK15 CT on the Src-mediated phosphorylation of the PLCγ1 tSH2 domain, GST-pK15CT^N2 was first phosphorylated with Src in vitro as described in the preceding paragraph. […] The reaction mix was then analysed by Western blot using an antibody to the phosphorylated Y^783 in the linker region of the PLCγ1 tSH2 domain and an antibody to the 5x His tag. […] Following a 45 min incubation at 37°C, the reaction mixture was analysed by Western blot as above.

[2] = test system: PLCγ1 SA and PLCγ1 tSH2, cSH2 R^694L mutant; assay: AlphaLISA, SA and tSH2 R694L mutant; assay type: binding; settings: phosphorylated; 300 nM each protein
Experimental: Fig 4 The PLCγ1 cSH2 domain is required for the binding of PLCγ1 to phosphorylated pK15 in vitro and may serve as a dominant-negative inhibitor. GST-fused pK15 cytoplasmic tail WT (A), or its truncated mutant N2 [51] (B), were phosphorylated in vitro by 2xStrep-Src and an AlphaLISA was performed with the indicated His-tagged fragments of PLCγ1. Mean and standard deviation from at least two independent experiments with two technical replicates each are depicted. GST fusion proteins of the N1 (C) or N2 (D) truncation mutants of the pK15 cytoplasmic tail were phosphorylated in vitro by 2xStrep-Src and their interaction with recombinant purified PLCγ1 tSH2 (tandem SH2) or SA (γ-specific array) domains was measured by AlphaLISA in the presence of increasing concentrations (300 nM, 600 nM, 900 nM, 1200 nM) of the purified PLCγ1 cSH2. […] After 48h lysates were collected and analysed by Western blot using an antibody to PLCγ1 pY^783 to assess the level of PLCγ1 phosphorylation. (F) The intensities of the pPLCγ1 bands shown in panel E were quantified by densitometry, normalized to the values obtained with the empty vector (EV) in the presence of pK15, and plotted as relative values. […]
His-tagged PLCγ1 (SA, tSH2 or the isolated SH2 domains) was incubated at room temperature with GST-tagged K15P or its mutants for 1 hour. […] Emission at 615 nm was detected on BioTek Synergy 2 plate reader.

Molecule	inhibition of 35mer-induced tSH2 phosphorylation [1]	interaction (AlphaLISA) [2]
DDLpYEEVLFPRN [pK15 12mer, phosphorylated peptide representing the last 12 amino acids of pK15 CT (DDLp…)]	could inhibit the increased PLCγ1 tSH2 phosphorylation induced by the 35mer peptide	
B1		markedly reduced binding
